Experimental data from patent publication US20230278972A1, “SUBSTITUTED HALOALKYL SULFONANILIDE HERBICIDES” (FMC Corporation, priority 2020, published 2023).

Tests used:
Type in all cases: in vivo
[1] = test system: barnyardgrass (Echinochloa crus-galli); test: Test A preemergence, barnyardgrass; details: Preemergence; for Barnyardgrass plant response rating: 125 g ai/ha, visual injury on 0 to 100 scale (0 no effect, 100 complete control), approximately 10 days; for Plant response rating, Barnyardgrass: 0 to 100 scale (0 no effect, 100 complete control)
How it was run: (§1)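 Directed soil spray at planting gave the preemergence treatment, while foliar application to one- to two-leaf seedlings (2–10 cm) gave the postemergence one; pots held a loam and sand mixture and chemicals were carried in a non-phytotoxic solvent with surfactant.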

[2] = test system: blackgrass (Alopecurus myosuroides); test: Test A postemergence, blackgrass; details: Postemergence
How it was run: as §1

[3] = test system: Foxtail, Giant (giant foxtail, Setaria faberi); test: Test A preemergence, Foxtail, Giant; details: Preemergence; for Foxtail, Giant plant response rating: 125 g ai/ha, visual injury on 0 to 100 scale (0 no effect, 100 complete control), approximately 10 days; for Plant response rating, Foxtail, Giant: 0 to 100 scale (0 no effect, 100 complete control)
How it was run: as §1

[4] = test system: pigweed (Amaranthus retroflexus); test: Test A preemergence, pigweed; details: for Pigweed plant response rating: 125 g ai/ha, visual injury on 0 to 100 scale (0 no effect, 100 complete control), approximately 10 days; for Plant response rating, Pigweed: 0 to 100 scale (0 no effect, 100 complete control)
How it was run: (§2)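 Seeds are sown in loam mixed with sand and sprayed on the soil surface right after planting for the preemergence test. Postemergence pots are sprayed once seedlings reach 2 to 10 cm at the one- to two-leaf stage. The same surfactant-containing, non-phytotoxic solvent formulation serves both.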

[5] = test system: barnyardgrass (Echinochloa crus-galli); test: Test A postemergence, barnyardgrass; details: Postemergence
How it was run: as §2

[6] = test system: ragweed (common ragweed, Ambrosia artemisiifolia); test: Test A postemergence, ragweed; details: Postemergence
How it was run: as §1

[7] = test system: Foxtail, Giant (giant foxtail, Setaria faberi); test: Test A postemergence, Foxtail, Giant; details: Postemergence
How it was run: as §1

[8] = test system: galium (catchweed bedstraw, Galium aparine); test: Test A postemergence, galium; details: Postemergence
How it was run: as §2

[9] = test system: Ryegrass, Italian (Italian ryegrass, Lolium multiflorum); test: Test A postemergence, Ryegrass, Italian; details: Postemergence
How it was run: as §1

[10] = test system: ragweed (common ragweed, Ambrosia artemisiifolia); test: Test A preemergence, ragweed; details: Preemergence; for Ragweed plant response rating: 125 g ai/ha, visual injury on 0 to 100 scale (0 no effect, 100 complete control), approximately 10 days; for Plant response rating, Ragweed: 0 to 100 scale (0 no effect, 100 complete control)
How it was run: as §1

[11] = test system: Ryegrass, Italian (Italian ryegrass, Lolium multiflorum); test: Test A preemergence, Ryegrass, Italian; details: Preemergence; for Ryegrass, Italian plant response rating: 125 g ai/ha, visual injury on 0 to 100 scale (0 no effect, 100 complete control), approximately 10 days; for Plant response rating, Ryegrass, Italian: 0 to 100 scale (0 no effect, 100 complete control)
How it was run: as §1

kochia (Bassia scoparia) [12] = test: Test A preemergence, kochia; details: Preemergence; for Kochia plant response rating: 125 g ai/ha, visual injury on 0 to 100 scale (0 no effect, 100 complete control), approximately 10 days; for Plant response rating, Kochia: 0 to 100 scale (0 no effect, 100 complete control)
How it was run: as §1

corn (Zea mays) = test: Test A postemergence, corn; details: Postemergence
How it was run: as §1

[13] = test system: pigweed (Amaranthus retroflexus); test: Test A postemergence, pigweed; details: Postemergence
How it was run: as §1

kochia (Bassia scoparia) [14] = test: Test A postemergence, kochia; details: Postemergence
How it was run: as §1

[15] = test system: wheat (Triticum aestivum); test: Test A postemergence, wheat; details: Postemergence
How it was run: as §2

[16] = 125 g ai/ha, visual injury approx. 10 days, 0 to 100 scale (0 no effect, 100 complete control)
[17] = 500 g ai/ha, visual injury vs untreated controls after approx. 10 days, 0 to 100 scale (0 no effect, 100 complete control)
[18] = 500 g ai/ha, visual injury, 0 to 100 scale (0 no effect, 100 complete control), approx. 10 days
[19] = 31 g ai/ha, visual injury, approx. 10 days
[20] = 31 g ai/ha, visual injury on 0 to 100 scale (0 no effect, 100 complete control), approx. 10 days
[21] = 125 g ai/ha, 0 to 100 scale (0 no effect, 100 complete control)

Cc1cc(C)c(N(S(=O)(=O)C(F)(F)F)S(=O)(=O)C(F)(F)F)cc1C1=NOC2CCCC12 (stereo not drawn) [Compound 99]
100: Plant response rating, Barnyardgrass ([1]; 500 g ai/ha) | Pigweed plant response rating [4] | Plant response rating, Pigweed ([4]; 500 g ai/ha) | Plant response rating, Kochia (kochia (Bassia scoparia) [12]; 500 g ai/ha) | Pigweed plant response rating [13, 17]
0: Plant response rating, Blackgrass [2, 16] | Plant response rating, Foxtail, Giant [7, 16] | Plant response rating, Ryegrass, Italian [9, 16] | Plant response rating, Corn (corn (Zea mays); [16]) | Corn plant response rating (corn (Zea mays); [17]) | Plant response rating, Wheat [15, 16]
70: Foxtail, Giant plant response rating [3] | Plant response rating, Barnyardgrass [5, 16] | Kochia plant response rating (kochia (Bassia scoparia) [12]) | Plant response rating, Pigweed [13, 16]
10: Foxtail, Giant plant response rating [7, 17]
90: Barnyardgrass plant response rating [1] | Barnyardgrass plant response rating [5, 17] | Plant response rating, Galium [8, 16] | Galium plant response rating [8, 17] | Plant response rating, Ragweed ([10]; 500 g ai/ha) | Plant response rating, Ryegrass, Italian ([11]; 500 g ai/ha) | Kochia plant response rating (kochia (Bassia scoparia) [14]; [17])
60: Ryegrass, Italian plant response rating [9, 17] | Ragweed plant response rating [10]
50: Ryegrass, Italian plant response rating [11] | Wheat plant response rating [15, 17]
40: Plant response rating, Ragweed [6, 16] | Plant response rating, Kochia (kochia (Bassia scoparia) [14]; [16])
80: Plant response rating, Foxtail, Giant ([3]; 500 g ai/ha) | Ragweed plant response rating [6, 17]
20: Blackgrass plant response rating [2, 17]

Cc1cc(C)c(N(S(C)(=O)=O)S(=O)(=O)C(F)(F)F)cc1-c1cc(C(C)C)nn(C)c1=O [Compound 39]
30: Plant response rating, Barnyardgrass [5, 18] | Plant response rating, Ragweed ([10]; 500 g ai/ha) | Ryegrass, Italian plant response rating [11]
40: Barnyardgrass plant response rating [1] | Plant response rating, Ryegrass, Italian [9, 18]
0: Plant response rating, Blackgrass [2, 16] | Plant response rating, Blackgrass [2, 18] | Pigweed plant response rating [4] | Plant response rating, Pigweed ([4]; 500 g ai/ha) | Plant response rating, Barnyardgrass [5, 16] | Plant response rating, Foxtail, Giant [7, 16] | Plant response rating, Foxtail, Giant [7, 18] | Plant response rating, Galium [8, 16] | Plant response rating, Galium [8, 18] | Plant response rating, Ryegrass, Italian [9, 16] | Ragweed plant response rating [10] | Kochia plant response rating (kochia (Bassia scoparia) [12]) | Plant response rating, Kochia (kochia (Bassia scoparia) [12]; 500 g ai/ha) | Plant response rating, Corn (corn (Zea mays); [16]) | Plant response rating, Corn (corn (Zea mays); [18]) | Plant response rating, Pigweed [13, 16] | Plant response rating, Pigweed [13, 18] | Plant response rating, Kochia (kochia (Bassia scoparia) [14]; [16]) | Plant response rating, Kochia (kochia (Bassia scoparia) [14]; [18])
10: Foxtail, Giant plant response rating [3]
60: Plant response rating, Wheat [15, 16] | Plant response rating, Wheat [15, 18]
90: Plant response rating, Barnyardgrass ([1]; 500 g ai/ha) | Plant response rating, Foxtail, Giant ([3]; 500 g ai/ha)
70: Plant response rating, Ragweed [6, 18] | Plant response rating, Ryegrass, Italian ([11]; 500 g ai/ha)
20: Plant response rating, Ragweed [6, 16]

Cc1c(C(=O)N2CCOCC2)cc(N(S(=O)(=O)C(F)(F)F)S(=O)(=O)C(F)(F)F)c(C)c1F [Compound 174]
40: Plant response rating, Ryegrass, Italian [11, 19] | Plant response rating, Kochia (kochia (Bassia scoparia) [12]; [19])
100: Pigweed plant response rating [4]
70: Plant response rating, Ragweed [6, 20] | Plant response rating, Pigweed [13, 20]
20: Plant response rating, Corn (corn (Zea mays); [21])
0: Plant response rating, Blackgrass [2, 20] | Plant response rating, Blackgrass [2, 21] | Plant response rating, Barnyardgrass [5, 20] | Plant response rating, Foxtail, Giant [7, 20] | Plant response rating, Foxtail, Giant [7, 21] | Plant response rating, Ryegrass, Italian [9, 20] | Plant response rating, Ryegrass, Italian [9, 21] | Plant response rating, Corn (corn (Zea mays); [20]) | Plant response rating, Wheat [15, 20] | Plant response rating, Wheat [15, 21]
30: Plant response rating, Foxtail, Giant [3, 19] | Plant response rating, Ragweed [10, 19] | Plant response rating, Kochia (kochia (Bassia scoparia) [14]; [21])
80: Barnyardgrass plant response rating [1] | Plant response rating, Galium [8, 21] | Kochia plant response rating (kochia (Bassia scoparia) [12])
60: Plant response rating, Barnyardgrass [5, 21] | Ryegrass, Italian plant response rating [11]
50: Plant response rating, Galium [8, 20]
10: Plant response rating, Barnyardgrass [1, 19] | Plant response rating, Kochia (kochia (Bassia scoparia) [14]; [20])
90: Foxtail, Giant plant response rating [3] | Plant response rating, Pigweed [4, 19] | Plant response rating, Ragweed [6, 21] | Ragweed plant response rating [10] | Plant response rating, Pigweed [13, 21]
